Key:
[1] = tested on: DNB aptamer (RNA, aptamer) GGUGCCUUAUUCCGGACGCCGGGCCCGAAUGCUGCUACGGCAGUCGAAGACAACAUCGCGCCCUUCGGAGGCACC; assay: fluorescence increase titration; details: 125 mM KCl, 5 mM MgCl2; 20 mM Hepes pH 7.4, 25°C; probe 100 nM
[2] = tested on: clone 5 (RNA, aptamer) GGAGCUCAGCCUUCACUGCGGUUGCCCUCCGUGCUUCAUGCUUCCCUGCUUCGGCAGUCGCGGUAAACCGUAGAGAAAGUUGAGGCACCACGGUCGGAUCCAC; assay: fluorescence increase titration; details: 125 mM KCl, 5 mM MgCl2; 20 mM Hepes pH 7.4, 25°C; probe 1 µM
[3] = tested on: wt-DNB aptamer (RNA, aptamer) GGAGCUCAGCCUUCACUGCCUUAUUCCGGACGCCGGGCCCGAAUGCUGCUACGGCAGUCGAAGACAACAUCGCGCCCUUCGGAGGCACCACGGUCGGAUCCAC; assay: fluorescence increase titration; details: 125 mM KCl, 5 mM MgCl2; 20 mM Hepes pH 7.4, 25°C; probe 100 nM
[4] = tested on: DNB aptamer (RNA, aptamer) GGUGCCUUAUUCCGGACGCCGGGCCCGAAUGCUGCUACGGCAGUCGAAGACAACAUCGCGCCCUUCGGAGGCACC; assay: fluorescence competition; details: 125 mM KCl, 5 mM MgCl2; 20 mM Hepes pH 7.4; displaces SR-DN (1 μM) from DNB (100 nM); calculated from IC50

KD [1] [µM] | KD [2] [µM] | KD [3] [µM] | KD [4] [µM] | Structure (SMILES)
18.0 ± 1.8 | 52.6 ± 17.8 | – | – | O=[N+]([O-])c1ccc(NCCOCCOCCNS(=O)(=O)c2ccc(C3=c4cc5c6c(c4Oc4c3cc3c7c4CCCN7CCC3)CCC[N+]=6CCC5)c(S(=O)(=O)[O-])c2)c([N+](=O)[O-])c1
0.80 ± 0.10 | 20.1 ± 3.9 | 1.44 ± 0.08 | – | CCN(CC)c1ccc2c(-c3ccc(S(=O)(=O)NCCOCCOCCNc4ccc([N+](=O)[O-])cc4[N+](=O)[O-])cc3S(=O)(=O)[O-])c3ccc(=[N+](CC)CC)cc-3oc2c1
8.55 ± 0.53 | 27.2 ± 3.2 | – | – | O=C(NCCOCCOCCNc1ccc([N+](=O)[O-])cc1[N+](=O)[O-])c1ccc(-c2c3ccc(=O)cc-3oc3cc(O)ccc23)c(C(=O)O)c1
4.48 ± 0.60 | – | – | – | N=c1ccc2c(-c3ccc(C(=O)NCCOCCOCCNc4ccc([N+](=O)[O-])cc4[N+](=O)[O-])cc3C(=O)O)c3ccc(N)cc3oc-2c1
0.35 ± 0.05 | 7.77 ± 0.9 | – | – | CN(C)c1ccc2c(-c3ccc(C(=O)NCCOCCOCCNc4ccc([N+](=O)[O-])cc4[N+](=O)[O-])cc3C(=O)[O-])c3ccc(=[N+](C)C)cc-3oc2c1
– | – | – | 0.1 ± 0.014 | NCCOCCOCCNc1ccc([N+](=O)[O-])cc1[N+](=O)[O-]

Source: PMC4666381 (2015)
